One test addresses T1, GLUT4 (Homo sapiens, UniProt P14672).
T1 construct: SNAP (SNAP-tag fusion partner); expressed in transfected cells; host or cells: 3T3-L1 adipocytes, retrovirally transduced
T1 sequence (P14672 1-509): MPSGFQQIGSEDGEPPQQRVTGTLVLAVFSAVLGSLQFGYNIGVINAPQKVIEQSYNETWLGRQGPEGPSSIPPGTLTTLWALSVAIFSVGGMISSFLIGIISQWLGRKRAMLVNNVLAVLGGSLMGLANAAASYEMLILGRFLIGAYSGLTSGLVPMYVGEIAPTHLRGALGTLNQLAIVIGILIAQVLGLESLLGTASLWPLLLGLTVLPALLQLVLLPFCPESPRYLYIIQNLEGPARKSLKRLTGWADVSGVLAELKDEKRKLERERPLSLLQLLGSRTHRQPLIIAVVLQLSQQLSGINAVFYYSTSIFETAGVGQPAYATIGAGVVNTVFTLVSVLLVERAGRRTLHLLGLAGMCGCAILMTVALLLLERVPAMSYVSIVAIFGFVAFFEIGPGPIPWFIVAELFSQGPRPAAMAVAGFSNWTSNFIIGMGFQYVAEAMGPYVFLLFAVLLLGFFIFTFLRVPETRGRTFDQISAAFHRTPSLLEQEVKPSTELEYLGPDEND
The test can be described thus: HNE-induced GLUT4 carbonylation (K264-HNE adduct) by MRM in 3T3-L1 adipocytes overexpressing GLUT4-SNAP. Type of test: cell-based. The conditions noted are these: 20 μM for 4 hour, 3T3-L1 cells overexpressing GLUT4. The protocol: A GLUT4-SNAP fusion construct is generated. 3T3-L1 adipocytes were then retrovirally transduced with the construct to overexpress the GLUT4-SNAP protein. Twenty-four hours after the transduction, the cells were treated with and without 20 μM of 4-HNE for an additional 4 hours. This 4-HNE dose is chosen because it is similar to the physiological levels and is non-toxic. In order to identify and quantitate GLUT4 carbonylation (K264 NHE-adduct or R265 and R246 glutamic semialdehyde adducts), a mass spectroscopy-based multiple reaction monitoring (MRM) method is developed and validated.
[…] of the GLUT4 peptide found in humans were used for quantitation.

Another test deals with 3T3-L1 adipocytes. The test can be described thus: Insulin-induced glucose uptake by 3T3-L1 adipocytes after 4-HNE / H2O2 treatment (MRM). Type of test: cell-based, mouse. The conditions noted are these: 500 μM for 4 hour, then 100 nM insulin for 60 minutes. Here is the method:
3T3-L adipocytes (1×10^6) were treated with either 500 μM of 4-HNE or H2O2 or combination of both for 4 hour and were then stimulated with 100 nM insulin for 60 minutes. The glucose uptake is measured by a specific MRM method.

With `CCCCCC(O)/C=C/C=O` (stereo not drawn) [Example 4-HNE, 4-hydroxynonenal], the “formation of the K264-HNE adduct (GLUT4 carbonylation)” value on GLUT4 is “induced the formation of the K264-HNE adduct”. Moreover, the “reduction of insulin-induced glucose uptake” value in the test with 3T3-L1 adipocytes amounted to 32%.

Regarding `OO` [Example H2O2], the “reduction of insulin-induced glucose uptake” value in the test with 3T3-L1 adipocytes was found to be 66%.

Values taken from US20200392075A1, “COMPOSITIONS AND METHODS FOR TREATMENT OF INSULIN RESISTANCE” (Temple University - Of The Commonwealth System Of Higher …, priority 2018, published 2020).
